According to ChEMBL document CHEMBL1201862, “PubChem BioAssay data set” (2004):
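1) Cells in 96-well plates. 2) Compound, 48 h, 5 concentrations. 3) Linear interpolation between surrounding doses. 4) Unreached endpoint = highest concentration. Abbreviation: GI50, concentration required for 50% inhibition of growth.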 The source made the active and inactive calls. Cut-off read from the data, not from the text of the source: active = GI50 up to about 1.1 µM and inactive = higher.

What was measured:
Assay in all cases: NCI anticancer screen, dose series, 48 h
BT-549 = system: BT-549
MDA-MB-231 = system: MDA-MB-231
PC-3 = system: PC-3
MDA-N = system: MDA-N
DU-145 = system: DU-145
T47D = system: T47D
786-0 = system: 786-0
RXF 631 = system: RXF 631
LXFL 529 = system: LXFL 529

In the case of `C=CS(=O)(=O)c1c2cc(OC)ccc2nc2ccc(OC)cc12`, the GI50 (BT-549) is reported as 10.5 µM (inactive), the GI50 (MDA-MB-231) is reported as 15.5 µM (inactive) and the GI50 (PC-3) is reported as 7.29 µM (inactive). The GI50 (MDA-N) was 3.5 µM (inactive), the GI50 (DU-145) was 3.53 µM (inactive) and the GI50 (T47D) was 3.43 µM (inactive). The GI50 (786-0) was 2.37 µM (inactive).

With `Clc1nc(Cl)nc(Nc2cccc3ccccc23)n1` the GI50 (MDA-MB-231) was > 10 µM (inactive), the GI50 (PC-3) was > 10 µM (inactive) and the GI50 (MDA-N) was > 10 µM (inactive). For the same compound, the GI50 (DU-145) was > 10 µM (inactive) and the GI50 (T47D) was > 10 µM (inactive).

For `COC(=O)c1c(O)ccc2c1c1c(n2Cc2cccc(C)c2)C(=O)c2ccccc2C1`, the GI50 (BT-549) was 26.5 µM (inactive), the GI50 (MDA-MB-231) was 13.6 µM (inactive) and the GI50 (PC-3) was 9.1 µM (inactive). For the same compound, the GI50 (DU-145) was 51.4 µM (inactive) and the GI50 (T47D) was 0.348 µM (active).

With `COc1ccc(C(=O)Cc2ccc(Cl)cc2)cc1OC` the GI50 (RXF 631) was > 100 µM (inactive) and the GI50 (LXFL 529) was > 100 µM (inactive).

For `COc1cc(C2c3cc4c(cc3OC3(O)COC(=O)C23)OCO4)cc(OC)c1OC` (stereo unspecified), the GI50 (RXF 631) was 49.3 µM (inactive) and the GI50 (LXFL 529) was 39.8 µM (inactive).

For `Cc1cc(Cl)ccc1NC1=NC(=O)C(CC(=O)Nc2cccc(Cl)c2)S1` (stereo unspecified), the GI50 (LXFL 529) was 39.9 µM (inactive) and the GI50 (786-0) was 46.8 µM (inactive).

`C=CCOC1=C(OCC=C)C(C2COC(C)(C)O2)OC1=O` (stereo unspecified) was tested, and the GI50 (BT-549) was > 100 µM (inactive), the GI50 (MDA-MB-231) was > 100 µM (inactive) and the GI50 (PC-3) was > 100 µM (inactive). For the same compound, the GI50 (MDA-N) was > 100 µM (inactive), the GI50 (DU-145) was > 100 µM (inactive) and the GI50 (T47D) was > 100 µM (inactive). The GI50 (786-0) was 67 µM (inactive).

With `CC(=O)NNc1nc(C)c(C(=O)NNC(=O)C(=O)Nc2cccc(C(C)=O)c2)s1` the GI50 (RXF 631) was 26.6 µM (inactive).

`Cn1c(=O)c2nc(N3CCOCC3)cnc2n(C)c1=O` was tested, and the GI50 (LXFL 529) was > 100 µM (inactive).

With `CC1(C)C(=O)c2ccccc2OC1N1CCN(C2Oc3ccccc3C(=O)C2(C)C)CC1` (stereo unspecified) the GI50 (BT-549) was > 100 µM (inactive), the GI50 (MDA-MB-231) was 94.6 µM (inactive) and the GI50 (PC-3) was > 100 µM (inactive). For the same compound, the GI50 (MDA-N) was > 100 µM (inactive), the GI50 (DU-145) was > 100 µM (inactive) and the GI50 (T47D) was 83.4 µM (inactive).

With `Cn1ccnc1C(O)(c1nccn1C)c1nccn1C` the GI50 (LXFL 529) was > 100 µM (inactive).

`C=CCN(N=O)C(=O)N(CCC)CCCCC(NC(C)=O)C(=O)NCc1ccccc1` (stereo unspecified) was tested, and the GI50 (RXF 631) was > 100 µM (inactive), the GI50 (LXFL 529) was 62.5 µM (inactive) and the GI50 (786-0) was > 100 µM (inactive).

For `COC(=O)C1CCC(=O)N1C(=O)Cc1ccc(OC)cc1` (stereo unspecified), the GI50 (LXFL 529) was > 100 µM (inactive).

With `CCCn1cc2c(O)nc(SC)nc2n1` the GI50 (LXFL 529) was > 100 µM (inactive).

With `Nc1nc(N)c2c(n1)NC(=O)c1c(c3ccccc3n1Cc1ccc(Cl)cc1)C2` the GI50 (BT-549) was 24.2 µM (inactive), the GI50 (PC-3) was 23 µM (inactive) and the GI50 (MDA-N) was 16.6 µM (inactive). For the same compound, the GI50 (DU-145) was 14.4 µM (inactive) and the GI50 (T47D) was 16.8 µM (inactive).

For `CC1(C)COC(/C=C/C2=NC(C)(C)CO2)=N1`, the GI50 (BT-549) was 23.1 µM (inactive), the GI50 (MDA-MB-231) was 19.7 µM (inactive) and the GI50 (PC-3) was 17.5 µM (inactive). For the same compound, the GI50 (MDA-N) was 20.1 µM (inactive), the GI50 (DU-145) was 13 µM (inactive) and the GI50 (T47D) was 8.75 µM (inactive).

`COc1ccc(C2C(Cl)C(=O)N2NC(=O)c2ccccc2O)cc1` (stereo unspecified) was tested, and the GI50 (LXFL 529) was > 100 µM (inactive).
